Data: the supplement of paper PMC13380429

How the values were obtained:
Settings in all cases: 72 h
Calu-3 [1] = experiment: cell viability relative to DMSO; higher = less toxic
HepG2 [2] = experiment: as above
U2OS [3] = experiment: as above
Vero E6 [4] = experiment: as above
Calu-3 [5] = experiment: relative viability EC50 (midpoint between 100% and the lowest measured viability); higher = less toxic
HepG2 [6] = experiment: as above
U2OS [7] = experiment: as above
Vero E6 [8] = experiment: as above
Calu-3 [9] = experiment: drug sensitivity score (DSS) for viability; higher = more toxic; extreme values may be limits of the assay
HepG2 [10] = experiment: as above
U2OS [11] = experiment: as above
Vero E6 [12] = experiment: as above
Caco-2 [13] = experiment: cell viability relative to DMSO; higher = less toxic
Caco-2 [14] = experiment: drug sensitivity score (DSS) for viability; higher = more toxic; extreme values may be limits of the assay

| Structure (SMILES) | cell viability (Calu-3 [1]; 1 nM) [%] | cell viability (Calu-3 [1]; 10 nM) [%] | cell viability (Calu-3 [1]; 100 nM) [%] | cell viability (Calu-3 [1]; 1000 nM) [%] | cell viability (Calu-3 [1]; 10000 nM) [%] | cell viability (HepG2 [2]; 1 nM) [%] | cell viability (HepG2 [2]; 10 nM) [%] | cell viability (HepG2 [2]; 100 nM) [%] | cell viability (HepG2 [2]; 1000 nM) [%] | cell viability (HepG2 [2]; 10000 nM) [%] | cell viability (U2OS [3]; 1 nM) [%] | cell viability (U2OS [3]; 10 nM) [%] | cell viability (U2OS [3]; 100 nM) [%] | cell viability (U2OS [3]; 1000 nM) [%] | cell viability (U2OS [3]; 10000 nM) [%] | cell viability (Vero E6 [4]; 1 nM) [%] | cell viability (Vero E6 [4]; 10 nM) [%] | cell viability (Vero E6 [4]; 100 nM) [%] | cell viability (Vero E6 [4]; 1000 nM) [%] | cell viability (Vero E6 [4]; 10000 nM) [%] | relative viability EC50 (Calu-3 [5]) [nM] | relative viability EC50 (HepG2 [6]) [nM] | relative viability EC50 (U2OS [7]) [nM] | relative viability EC50 (Vero E6 [8]) [nM] | drug sensitivity score (Calu-3 [9]) | drug sensitivity score (HepG2 [10]) | drug sensitivity score (U2OS [11]) | drug sensitivity score (Vero E6 [12]) | cell viability (Caco-2 [13]; 1 nM) [%] | cell viability (Caco-2 [13]; 10 nM) [%] | cell viability (Caco-2 [13]; 100 nM) [%] | cell viability (Caco-2 [13]; 1000 nM) [%] | cell viability (Caco-2 [13]; 10000 nM) [%] | drug sensitivity score (Caco-2 [14]) |
| --- | --- | --- | --- | --- | --- | --- | --- | --- | --- | --- | --- | --- | --- | --- | --- | --- | --- | --- | --- | --- | --- | --- | --- | --- | --- | --- | --- | --- | --- | --- | --- | --- | --- | --- |
| O=C(O)CCCO [SODIUM OXYBATE] | 97.3 | 99 | 94.7 | 115 | 112 | 82.4 | 105 | 92.8 | 90.8 | 110 | 103 | 101 | 103 | 96.4 | 100 | 93.6 | 100 | 99.1 | 102 | 87.2 | > 10000 | > 10000 | > 10000 | > 10000 | 0 | 0 | 0 | 0 | – | – | – | – | – | – |
| CS[C@H]1SC[C@H]2C(=O)N(C)[C@@H](C(C)C)C(=O)OC[C@@H](NC(=O)c3cnc4ccccc4n3)C(=O)N[C@@H](C)C(=O)N(C)[C@@H]1C(=O)N(C)[C@@H](C(C)C)C(=O)OC[C@@H](NC(=O)c1cnc3ccccc3n1)C(=O)N[C@@H](C)C(=O)N2C [echinomycin] | 57.6 | 16 | 27.3 | 35.5 | 36.2 | 77.1 | 9.7 | 6.7 | 7 | 7.7 | 54.1 | 0.5 | 0.6 | 2.3 | 1.8 | 104 | 90.4 | 2.1 | 4.6 | 1 | < 1 | 1.8 | 1.1 | 24 | 41.3 | 42.9 | 47.9 | 31.7 | 63.1 | 54.7 | 57.2 | 63.2 | 75.9 | 22.8 |
| CC[C@H](CO)Nc1nc(Nc2cccc(-c3ccccn3)c2)c2ncn(C(C)C)c2n1 [DRF053-(R)] | 94.7 | 94.9 | 90.7 | 104 | 80.3 | 98.8 | 108 | 107 | 94.5 | 66.2 | 102 | 101 | 94.7 | 99.6 | 94.4 | 92 | 92.3 | 92.7 | 89.8 | 81.7 | > 10000 | – | > 10000 | > 10000 | 0.4 | 2.5 | 0 | 1 | 99.6 | 86.9 | 91.2 | 93.2 | 67.4 | 2.4 |
| CO[C@@H]1[C@@H](O[C@@H]2O[C@H](C)[C@@H](O[C@H]3C[C@@](C)(O)[C@@H](OC(=O)CC(C)C)[C@H](C)O3)[C@H](N(C)C)[C@H]2O)[C@@H](CC=O)C[C@@H](C)[C@@H](O)/C=C/C=C/C[C@@H](C)OC(=O)C[C@H]1OC(C)=O [josamycin] | 103 | 102 | 106 | 98.2 | 106 | 107 | 105 | 117 | 95 | 74.4 | 101 | 89.3 | 97.5 | 101 | 100 | 95 | 98.6 | 105 | 92.1 | 99.1 | > 10000 | – | > 10000 | > 10000 | 0 | 1.7 | 0 | 0 | 101 | 94.2 | 100 | 107 | 68 | 1.1 |
| Cn1ncc(Cl)c1-c1cc(C(=O)N[C@H](CN)Cc2ccc(F)c(F)c2)oc1Cl [uprosertib] | 104 | 107 | 78.4 | 80.5 | 49.9 | 101 | 97.4 | 101 | 85.2 | 68.4 | 95.1 | 99.8 | 94.5 | 96.5 | 76.3 | 106 | 102 | 102 | 94.9 | 83.6 | 693 | – | > 10000 | > 10000 | 5.8 | 3.3 | 1.4 | 0.8 | 98.7 | 99.3 | 86.2 | 71.5 | 53.9 | 6.5 |
| COc1cc2ncnc(Nc3ccc(F)c(Cl)c3)c2cc1OCCCN1CCOCC1 [gefitinib] | – | – | – | – | – | – | – | – | – | – | – | – | – | – | – | – | – | – | – | – | 414 | – | – | – | 13.1 | 3.9 | 2.1 | 9.3 | – | – | – | – | – | 4.1 |
| C[C@]12CC[C@@H]3c4ccc(O)cc4CC[C@H]3[C@@H]1CCC2=O [estrone] | – | – | – | – | – | – | – | – | – | – | – | – | – | – | – | – | – | – | – | – | – | – | – | – | 0 | 0 | 0 | 0 | – | – | – | – | – | – |
| O=C(O)C[C@H](O)C[C@H](O)/C=C/c1c(C2CC2)nc2ccccc2c1-c1ccc(F)cc1 [pitavastatin] | 103 | 98.1 | 99.2 | 84.7 | 56.4 | 88.5 | 97.1 | 82 | 95.7 | 57.1 | 98.7 | 97 | 100 | 68.3 | 9.6 | 93.9 | 105 | 88.7 | 78 | 6.4 | – | – | 1280 | 1620 | 4.4 | 2.9 | 9.4 | 8.5 | 103 | 93.6 | 97.3 | 89.4 | 70.3 | 2.4 |
